Results reported in patent publication US20240299387A1, “HETEROCYCLIC EGFR INHIBITORS FOR USE IN THE TREATMENT OF CANCER” (Blueprint Medicines Corporation, priority 2021, published 2024).
Counter-ions that a name gives are not always drawn.

What was measured:
[1] = target: T1, EGFR (L858R T790M C797S) (Homo sapiens, UniProt P00533, C797S/L858R/T790M); experiment: Biochemical EGFR inhibition assay (Caliper mobility shift), EGFR LRTMCS mutant; conditions: LRTMCS (PH) IC50 (nM) @ 1 mM ATP (Num)
T1 construct: purchased SignalChem E10-122VG
Experimental: Reactions proceeded until between 10% to 20% total peptides were phosphorylated at room temperature (25° C.) and were terminated with 35 mM 2,2′,2″,2′″-(ethane-1,2-diyldinitrilo)tetraacetic acid (EDTA). Product was detected using the Caliper mobility shift detection method where the phosphorylated peptide (product) and substrate were electrophoretically separated and measured. Percent activity was plotted against log concentration of compound and points to generate an apparent IC50.

[2] = target: T2, EGFR L858R T790M in NCI-H1975 cell line (Homo sapiens, UniProt P00533, L858R/T790M); experiment: NCI-H1975 pEGFR AlphaLISA assay; type: cell-based; conditions: NCI-H1975 cells (EGFR L858R T790M), p-EGFR (Tyr1068), 4-5 hours incubation; read-out: Ext pEGFR H1975 GMean IC50 (nM) Protocol: @Pharmaron AlphaLISA (Num)
T2 construct: host or cells: NCI-H1975
Experimental: The NCI-H1975 cells were seeded at 12.5K/well in 22 μL into 384 well opti plate (PerkinElmer, 6007299) and adhering overnight at 37C/5% CO2. On the next day, the test compounds and DMSO control were added into H1975 cell plate followed by incubation at 37C/5% CO2 for 4-5 hours. […] Then 5 μL of a donor bead mix was added to each well followed by overnight incubation at room temperature in dark. On the next day, the plate was read at a compatible plate reader to obtain pEGFR signal. Percent of pEGFR inhibition was plotted against log concentration of compounds to generate IC50 values.

T1 sequence (P00533 25-1210 T790M/C797S/L858R): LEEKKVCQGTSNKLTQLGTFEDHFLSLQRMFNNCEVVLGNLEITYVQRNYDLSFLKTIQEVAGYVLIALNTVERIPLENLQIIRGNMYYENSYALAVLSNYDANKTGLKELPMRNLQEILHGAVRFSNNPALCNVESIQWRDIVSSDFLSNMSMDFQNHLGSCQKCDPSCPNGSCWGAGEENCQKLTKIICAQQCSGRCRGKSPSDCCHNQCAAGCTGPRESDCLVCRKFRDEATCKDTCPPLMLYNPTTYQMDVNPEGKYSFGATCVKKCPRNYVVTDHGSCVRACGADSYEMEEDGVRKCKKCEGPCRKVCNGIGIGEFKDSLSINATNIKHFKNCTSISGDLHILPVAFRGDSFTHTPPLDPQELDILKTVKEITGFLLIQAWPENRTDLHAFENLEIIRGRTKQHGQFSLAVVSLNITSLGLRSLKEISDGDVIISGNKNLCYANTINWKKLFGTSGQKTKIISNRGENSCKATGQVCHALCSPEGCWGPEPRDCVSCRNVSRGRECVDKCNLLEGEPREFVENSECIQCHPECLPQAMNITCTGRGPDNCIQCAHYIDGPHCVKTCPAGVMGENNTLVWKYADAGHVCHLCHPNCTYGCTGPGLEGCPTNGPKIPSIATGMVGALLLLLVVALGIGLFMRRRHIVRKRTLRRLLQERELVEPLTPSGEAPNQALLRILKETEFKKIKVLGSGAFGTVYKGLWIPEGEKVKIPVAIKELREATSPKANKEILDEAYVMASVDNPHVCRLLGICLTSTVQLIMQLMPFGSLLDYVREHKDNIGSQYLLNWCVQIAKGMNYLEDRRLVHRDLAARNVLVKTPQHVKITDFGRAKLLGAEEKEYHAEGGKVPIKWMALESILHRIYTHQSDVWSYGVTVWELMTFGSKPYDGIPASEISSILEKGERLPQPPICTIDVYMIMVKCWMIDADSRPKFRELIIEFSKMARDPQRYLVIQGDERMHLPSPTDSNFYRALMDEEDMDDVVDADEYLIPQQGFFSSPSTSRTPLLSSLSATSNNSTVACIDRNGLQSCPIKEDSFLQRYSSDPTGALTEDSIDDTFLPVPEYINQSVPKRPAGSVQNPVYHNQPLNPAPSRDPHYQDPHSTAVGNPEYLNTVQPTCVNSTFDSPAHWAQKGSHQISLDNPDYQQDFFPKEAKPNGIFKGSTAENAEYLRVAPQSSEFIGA
T2 sequence (P00533 25-1210 T790M/L858R): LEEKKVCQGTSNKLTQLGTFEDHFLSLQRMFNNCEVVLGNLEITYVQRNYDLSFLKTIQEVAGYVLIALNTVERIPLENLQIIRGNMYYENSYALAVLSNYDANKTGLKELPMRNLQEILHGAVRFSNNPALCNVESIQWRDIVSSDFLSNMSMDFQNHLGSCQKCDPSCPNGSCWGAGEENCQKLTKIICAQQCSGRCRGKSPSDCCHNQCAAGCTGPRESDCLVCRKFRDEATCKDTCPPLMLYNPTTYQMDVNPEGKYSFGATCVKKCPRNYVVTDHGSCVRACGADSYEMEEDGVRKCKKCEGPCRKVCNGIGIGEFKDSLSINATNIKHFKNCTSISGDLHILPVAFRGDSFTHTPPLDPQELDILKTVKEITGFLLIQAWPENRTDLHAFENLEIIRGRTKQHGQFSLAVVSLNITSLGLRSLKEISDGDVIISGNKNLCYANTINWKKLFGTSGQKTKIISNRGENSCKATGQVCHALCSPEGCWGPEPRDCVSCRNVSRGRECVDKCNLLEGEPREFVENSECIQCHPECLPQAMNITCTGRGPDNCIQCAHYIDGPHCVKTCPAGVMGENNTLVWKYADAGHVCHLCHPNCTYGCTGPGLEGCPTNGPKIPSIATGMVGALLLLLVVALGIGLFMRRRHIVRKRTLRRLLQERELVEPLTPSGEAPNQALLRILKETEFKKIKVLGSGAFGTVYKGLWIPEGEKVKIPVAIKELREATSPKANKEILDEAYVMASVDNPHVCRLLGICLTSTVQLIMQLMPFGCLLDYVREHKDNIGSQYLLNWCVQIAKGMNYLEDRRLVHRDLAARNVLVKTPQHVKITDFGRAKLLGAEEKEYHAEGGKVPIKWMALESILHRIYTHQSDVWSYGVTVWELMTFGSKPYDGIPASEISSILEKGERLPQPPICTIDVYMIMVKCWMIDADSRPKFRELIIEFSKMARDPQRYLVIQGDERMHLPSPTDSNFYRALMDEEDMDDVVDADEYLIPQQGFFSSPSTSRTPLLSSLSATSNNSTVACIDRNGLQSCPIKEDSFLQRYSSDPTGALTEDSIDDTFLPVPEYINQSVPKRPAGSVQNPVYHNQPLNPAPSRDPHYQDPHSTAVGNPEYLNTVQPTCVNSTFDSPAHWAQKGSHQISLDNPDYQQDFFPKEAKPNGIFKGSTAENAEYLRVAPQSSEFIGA

IC50 [1] [nM] | IC50 [2] [nM] | SMILES
20 to 30 | > 50 | CC(C)c1cnc(Nc2cnn(C)c2)c2cnc(Nc3ccnc(N4CC[C@@H](O)[C@@](C)(F)C4)n3)cc12 [Example 6, (3S,4R)-3-fluoro-1-(4-((5-isopropyl-8-((1-methyl-1H-pyrazol-4-yl)amino)-2,7-naphthyridin-3-yl)amino)pyrimidin-2-yl)-3-methylpiperidin-4-ol]
< 15 | 10 to 20 | CC(C)c1cnc(C(=O)N[C@H]2CNC[C@H]2F)c2cnc(Nc3ccnc(N4CC[C@@H](O)[C@@](C)(F)C4)n3)cc12 (racemic) [Example 85, 6-((2-((3S,4R)-3-fluoro-4-hydroxy-3-methylpiperidin-1-yl)pyrimidin-4-yl)amino)-N-((3S,4R)-4-fluoropyrrolidin-3-yl)-4-isopropyl-2,7-naphthyridine-1-carboxamide trifluoroacetate and 6-((2-((3S,4R)-3-fluoro-4-hydroxy-3-methylpiperidin-1-yl)pyrimidin-4-yl)amino)-N-((3R,4S)-4-fluoropyrrolidin-3-yl)-4-isopropyl-2,7-naphthyridine-1-carboxamide trifluoroacetate]
15 to 20 | > 50 | CC(C)c1cnc(C(=O)N[C@@H]2CN(C)C[C@H]2F)c2cnc(Nc3ccnc(N4CC[C@@H](O)[C@@](C)(F)C4)n3)cc12 (single isomer, unassigned) [Example 89]
< 15 | 30 to 50 | CC(C)c1cnc(C(=O)N[C@H]2C[C@@](C)(O)C2)c2cnc(Nc3ccnc(N4CC[C@@H](O)[C@@](C)(F)C4)n3)cc12 [Example 83, 6-((2-((3S,4R)-3-fluoro-4-hydroxy-3-methylpiperidin-1-yl)pyrimidin-4-yl)amino)-N-((1s,3s)-3-hydroxy-3-methylcyclobutyl)-4-isopropyl-2,7-naphthyridine-1-carboxamide]
< 15 | 30 to 50 | CC(C)c1cnc(C(=O)NCCN(C)C)c2cnc(Nc3ccnc(N4CC[C@@H](O)[C@@](C)(F)C4)n3)cc12 [Example 77, N-(2-(dimethylamino)ethyl)-6-((2-((3S,4R)-3-fluoro-4-hydroxy-3-methylpiperidin-1-yl)pyrimidin-4-yl)amino)-4-isopropyl-2,7-naphthyridine-1-carboxamide]
15 to 20 | 30 to 50 | CC(=O)N1CC(C)(COc2ccc(C(C)C)c3cc(Nc4ccnc(N5CC[C@@H](O)[C@@](C)(F)C5)n4)ncc23)C1 [Example 7, 1-(3-(((3-((2-((3S,4R)-3-fluoro-4-hydroxy-3-methylpiperidin-1-yl)pyrimidin-4-yl)amino)-5-isopropylisoquinolin-8-yl)oxy)methyl)-3-methylazetidin-1-yl)ethan-1-one]
< 15 | 10 to 20 | CC(C)c1cnc(C(=O)N[C@@H]2CN(C)C[C@H]2F)c2cnc(Nc3ccnc(N4CC[C@@H](O)[C@@](C)(F)C4)n3)cc12 (single isomer, unassigned) [Example 90]
20 to 30 | > 50 | CC(C)c1cnc(C(=O)N[C@H](C)CF)c2cnc(Nc3ccnc(N4CC[C@@H](O)[C@@](C)(F)C4)n3)cc12 [Example 71, 6-((2-((3S,4R)-3-fluoro-4-hydroxy-3-methylpiperidin-1-yl)pyrimidin-4-yl)amino)-N-((R)-1-fluoropropan-2-yl)-4-isopropyl-2,7-naphthyridine-1-carboxamide]
< 15 | 30 to 50 | CC(C)c1cnc(C(=O)NC2CN(C)C2)c2cnc(Nc3ccnc(N4CC[C@@H](O)[C@@](C)(F)C4)n3)cc12 [Example 59, 6-((2-((3S,4R)-3-fluoro-4-hydroxy-3-methylpiperidin-1-yl)pyrimidin-4-yl)amino)-4-isopropyl-N-(1-methylazetidin-3-yl)-2,7-naphthyridine-1-carboxamide]
15 to 20 | > 50 | CCNC(=O)c1ncc(C(C)C)c2cc(Nc3ccnc(N4CC[C@@H](O)[C@@](C)(F)C4)n3)ncc12 [Example 65, N-ethyl-6-((2-((3S,4R)-3-fluoro-4-hydroxy-3-methylpiperidin-1-yl)pyrimidin-4-yl)amino)-4-isopropyl-2,7-naphthyridine-1-carboxamide]
15 to 20 | > 50 | CC(C)c1cnc(C(=O)NC2CC2)c2cnc(Nc3ccnc(N4CC[C@@H](O)[C@@](C)(F)C4)n3)cc12 [Example 68, N-cyclopropyl-6-((2-((3S,4R)-3-fluoro-4-hydroxy-3-methylpiperidin-1-yl)pyrimidin-4-yl)amino)-4-isopropyl-2,7-naphthyridine-1-carboxamide]
20 to 30 | > 50 | CC(C)c1cnc(C(=O)N[C@@H]2CNC[C@H]2F)c2cnc(Nc3ccnc(N4CC[C@@H](O)[C@@](C)(F)C4)n3)cc12 (racemic) [Example 86, 6-((2-((3S,4R)-3-fluoro-4-hydroxy-3-methylpiperidin-1-yl)pyrimidin-4-yl)amino)-N-((3R,4R)-4-fluoropyrrolidin-3-yl)-4-isopropyl-2,7-naphthyridine-1-carboxamide trifluoroacetate and 6-((2-((3S,4R)-3-fluoro-4-hydroxy-3-methylpiperidin-1-yl)pyrimidin-4-yl)amino)-N-((3S,4S)-4-fluoropyrrolidin-3-yl)-4-isopropyl-2,7-naphthyridine-1-carboxamide trifluoroacetate]

Further lines, the molecule ahead of its results:

SMILES | IC50 [1] [nM] | IC50 [2] [nM]
CC(C)c1ccc(OCCn2ccnc2)c2cnc(Nc3ccnc(N4CC[C@@](C)(O)[C@@H](F)C4)n3)cc12 [Example 12, (3S,4R)-1-(4-((8-(2-(1H-imidazol-1-yl)ethoxy)-5-isopropylisoquinolin-3-yl)amino)pyrimidin-2-yl)-3-fluoro-4-methylpiperidin-4-ol] | < 15 | > 50
CC(C)c1ccc(OCCn2cncn2)c2cnc(Nc3ccnc(N4CC[C@](C)(O)[C@H](F)C4)n3)cc12 [Example 39, (3R,4S)-1-(4-((8-(2-(1H-1,2,4-triazol-1-yl)ethoxy)-5-isopropylisoquinolin-3-yl)amino)pyrimidin-2-yl)-3-fluoro-4-methylpiperidin-4-ol] | 15 to 20 | > 50
[2H]C([2H])([2H])O[C@H]1CCN(c2nccc(Nc3cc4c(C(C)C)ccc(OCCn5cnnc5)c4cn3)n2)C[C@H]1F [Example 44, 8-(2-(4H-1,2,4-triazol-4-yl)ethoxy)-N-(2-((3R,4S)-3-fluoro-4-(methoxy-d3)piperidin-1-yl)pyrimidin-4-yl)-5-isopropylisoquinolin-3-amine] | 15 to 20 | > 50
CC(C)c1ccc(OCCc2cncn2C)c2cnc(Nc3ccnc(N4CC[C@](C)(O)[C@H](F)C4)n3)cc12 [Example 38, (3R,4S)-3-fluoro-1-(4-((5-isopropyl-8-(2-(1-methyl-1H-imidazol-5-yl)ethoxy)isoquinolin-3-yl)amino)pyrimidin-2-yl)-4-methylpiperidin-4-ol] | 15 to 20 | > 50
CNCCO[C@@H]1CCN(c2nccc(Nc3cc4c(C(C)C)ccc(OC[C@@H]5COC(=O)N5C)c4cn3)n2)C[C@@H]1F [Example 54, (R)-4-(((3-((2-((3S,4R)-3-fluoro-4-(2-(methylamino)ethoxy)piperidin-1-yl)pyrimidin-4-yl)amino)-5-isopropylisoquinolin-8-yl)oxy)methyl)-3-methyloxazolidin-2-one] | 15 to 20 | > 50
CO[C@H]1CCN(c2nccc(Nc3cc4c(C(C)C)ccc(OCCn5cnnc5)c4cn3)n2)C[C@H]1F [Example 41, 8-(2-(4H-1,2,4-triazol-4-yl)ethoxy)-N-(2-((3R,4S)-3-fluoro-4-methoxypiperidin-1-yl)pyrimidin-4-yl)-5-isopropylisoquinolin-3-amine] | < 15 | 20 to 30
CC(C)c1ccc(OC[C@H]2CCC(=O)N2C)c2cnc(Nc3ccnc(N4CC[C@](C)(O)[C@H](F)C4)n3)cc12 [Example 25, (R)-5-(((3-((2-((3R,4S)-3-fluoro-4-hydroxy-4-methylpiperidin-1-yl)pyrimidin-4-yl)amino)-5-isopropylisoquinolin-8-yl)oxy)methyl)-1-methylpyrrolidin-2-one] | 15 to 20 | > 50
CC(C)c1ccc(OC[C@H](C)n2cnnc2)c2cnc(Nc3ccnc(N4CC[C@](C)(O)[C@H](F)C4)n3)cc12 [Example 36, (3R,4S)-1-(4-((8-((S)-2-(4H-1,2,4-triazol-4-yl)propoxy)-5-isopropylisoquinolin-3-yl)amino)pyrimidin-2-yl)-3-fluoro-4-methylpiperidin-4-ol] | 15 to 20 | > 50
CC(C)c1ccc(OCC2CCc3cncn32)c2cnc(Nc3ccnc(N4CCC(C)(O)CC4)n3)cc12 (centres unmarked) [Example 18, 1-(4-((8-((6,7-dihydro-5Hpyrrolo[1,2-c]imidazol-5-yl)methoxy)-5-isopropylisoquinolin-3-yl)amino)pyrimidin-2-yl)-4-methylpiperidin-4-ol] | < 15 | 20 to 30
CO[C@@H]1CCN(c2nccc(Nc3cc4c(C(C)C)ccc(OCCn5cnnc5)c4cn3)n2)C[C@@H]1F [Example 40, 8-(2-(4H-1,2,4-triazol-4-yl)ethoxy)-N-(2-((3S,4R)-3-fluoro-4-methoxypiperidin-1-yl)pyrimidin-4-yl)-5-isopropylisoquinolin-3-amine] | < 15 | > 50
